# Measurements from US6855505B2, “Method for quantifying TGF-β” (Renovo Limited, priority 1998, dated 2005).
# How the values were obtained:
# [1] = test system: rat incisional wounds; assay: Scarring in rat incisional wound model; type: in vivo
# Description: (§1) Adult male Sprague-Dawley rats (Charles River UK Ltd, Kent, UK) weighing 225-250 g were anaesthetised by inhalation of halothane, nitrous oxide, and oxygen. The back of the rats was shaved, and four full-thickness linear incisions of 1 cm length, including the panniculus carnosus, were made on the back of the animals using a scalpel as described in Shah et al., “Control of scarring in adult wounds by neutralising antibody to transforming growth factor β, Lancet. 339: 213-214, 1992. The wounds were left unsutured to heal by secondary intention. The animals were allowed to recover, housed separately, and fed ad libitum until the wounds were harvested. The animals were killed by chloroform overdose at 1 hour, 6 hour, or 1, 2, 3, 4, 5, 7, 10 and 14 days post-wounding. The wounds were harvested and processed as described below. All animal experiments were carried out under appropriate licences according to UK Home Office regulations.
# Briefly, rat incisional wounds were treated with 1 mM monodansylcadaverine (MDC), a potent inhibitor of Transglutaminase activity. The wounds were prepared and assayed as described previously.
# (§2) Briefly, rat incisional wounds were treated with 100 μM kistrin, then prepared and assayed as described previously.
# [2] = test system: active TGF-β; assay: Active TGF-β in wound cryosections, modified PAI/L assay; type: in vivo, rat; details: for level of active TGF-β in treated wounds compared to controls: 100 μM kistrin; for level of active TGF-β in treated wounds compared with PBS controls: M6P 100 mM, 100 μl/wound/day
# Description: as §1
# (§3) The wound area was swabbed with 70% ethanol. The wounds were carefully dissected from surrounding tissue and subsequently embedded in 8% sterile methyl cellulose (Sigma, Dorset, UK) and snap frozen in liquid nitrogen. Four wounds from each animal were embedded in one block of methyl cellulose. Four tissue samples of equivalent size representing surrounding tissue adjacent to the wound were also excised and processed as described above. Normal skin from the back of non-wounded rats was used as a control. The embedded tissue samples were stored at −80° C. for a maximum of 3 months. Thick cryosections (20 μm) were cut and placed on sterilised 13-mm round coverslips and analysed in duplicate. The coverslips, each carrying 4 cryosections of the wound, were placed into a 24-well cell culture plate and temporarily stored at −20° C. until transferred onto mink lung epithelial cells (MLECs).
# Referring to FIG. 1, the original PAI/L assay for the quantification of TGF-β in liquid samples was modified in order to measure active/latent TGF-β levels in a tissue section of a wound site to provide an indication of the levels at the wound site in vivo. As shown in FIG. 1A MLECs (10) were plated for 4 h into 24-well plates. one well (12) being represented in FIG. 1A (3×10^5/ml, 500 μl/well) in complete DMEM and incubated for 4 hours at 37° C. Then, serum-containing medium was replaced with 500 μl of DMEM containing 0.1% pyrogen-poor BSA (from Pierce, Rockford, Ill., USA), aprotinin (1 μg/ml) (from Sigma, Dorset, UK) penicillin (100 U/ml) and streptomyciln (100 μg/ml), designated DMEM-BSA medium (14). The coverslips (16) carrying cryosections (18) were placed upside down onto the MLECs (10) in the 24-well plates.
# These serial dilutions were added to the MLECs (10) together with methyl-cellulose coated coverslips (16).
# Both samples and TGF-β standards were incubated with the MLECs (10) overnight at 37° C. MLECs (10) were then washed with phosphate buffered saline (PBS) and lysed with 200 μl of luciferase cell lysis buffer (from Analytical Luminescence Laboratory, Ann Arbor, USA) for 20 minutes at room temperature. Forty-five microliters of the lysates was transferred in triplicate to a Microlite 96-well plate (Dynatech Laboratories Inc. Chantilly, Va., USA). Luciferase activity in the lysates was determined using an MLX Microtiter Plate Luminometer (Dynex Technologies, Chantilly, Va., USA).
# (§4) 20 animals each received 4 wounds which were subsequently treated with M6P (100 mM, 100 μl/wound/day). Animals were killed at 1 and 6 hours and 1, 3, 5, 7, 10 and 14 days post wounding. The wounds were dissected and embedded in methyl cellulose, then snap frozen. The tissue samples were subsequently prepared for use in the modified PAI-1/L assay.
# Briefly, rat incisional wounds were treated with 1 mM monodansylcadaverine (MDC), a potent inhibitor of Transglutaminase activity. The wounds were prepared and assayed as described previously. […]
# [3] = test system: total TGF-β; assay: Total TGF-β (active plus latent) in heat-activated wound cryosections, PAI/L assay; type: in vivo, rat; details: for level of total TGF-β in treated wounds compared to controls: 100 μM kistrin; for level of total TGF-β in treated wounds compared with control wounds: M6P 100 mM, 100 μl/wound/day
# Description: as §1, §3
# In order to measure total TGF-β (active plus latent) in the wound tissue samples, the coverslips carrying the cryosections were submerged in 500 μl of DMEM-BSA medium in a sterile glass embryo dish (BDH, Merck, Leics., UK) and incubated for 20 minutes at 80° C. in order to heat activate latent TGF-β. Following heat activation, the coverslips were transferred, together with the medium, onto MLECs for TGF-β quantification in the PAI/L assay according to Example 1. Similar results were obtained in three separate experiments.
# as §4, §2
# [4] = test system: latent TGF-β; assay: Latent TGF-β in wound sections; type: in vivo, rat; details: 100 μM kistrin; 1 hour post wounding
# Experimental: as §2
# [5] = test system: rat incisional wounds; details: application into rat dermal wounds; earlier studies; cited from earlier work
# [6] = rat incisional wounds treated with 1 mM MDC
compound,measurement,setting,value
"CN(C)c1cccc2c(S(=O)(=O)NCCCCCN)cccc12 [MDC, monodansylcadaverine]",scarring,[1]; [6],improves scarring
same,early TGF-β levels,[2]; [6],reduces early TGF-β levels
same,TGF-β activation in vivo,"[2]; rat incisional wounds treated with 1 mM MDC, FIG. 8",inhibits TGF-β activation in vivo
kistrin,antiscarring effect,[1]; kistrin treated rat incisional wounds,no antiscarring effect
same,level of active TGF-β in treated wounds compared to controls,[2]; 1 hour post wounding,increased
same,level of active TGF-β in treated wounds compared to controls,[2]; 5 days post wounding,no differences
same,level of total TGF-β in treated wounds compared to controls,[3]; 1 hour post wounding,increased
same,level of total TGF-β in treated wounds compared to controls,[3]; 5 days post wounding,no differences
same,amount of latent TGF-β compared to controls,[4],no difference
"O=C[C@@H](O)[C@@H](O)[C@H](O)[C@H](O)COP(=O)(O)O [M6P, mannose-6-phosphate]",scarring,"[1]; local administration of M6P, rat incisional wound model, previously demonstrated by the applicant",significantly reduces scarring
same,level of active TGF-β in treated wounds compared with PBS controls,[2]; 1 hour post wounding,less
same,level of active TGF-β in treated wounds compared with PBS controls,[2]; 6 hours post wounding,less
same,level of active TGF-β in treated wounds compared with PBS controls,[2]; 10 days post wounding,more active TGF-β than controls
same,level of active TGF-β in treated wounds compared with PBS controls,[2]; after 6 hours until 10 days post wounding,comparable
same,reduction of levels of active TGF-β in vivo (overall conclusion),"[2]; M6P treated rat wounds, early stages of wound repair",effective in reducing the levels of active TGF-β in vivo
same,quality of scarring,[5],improve the quality of scarring
same,level of total TGF-β in treated wounds compared with control wounds,[3]; 6 hours post wounding,higher than controls
same,level of total TGF-β in treated wounds compared with control wounds,[3]; 5 days post wounding,higher than controls
same,level of total TGF-β in treated wounds compared with control wounds,[3]; 7 days post wounding,less than controls
same,level of total TGF-β in treated wounds compared with control wounds,[3]; 10 days post wounding,higher than controls
